Publication PMC8233901, “D-Amino Acid-Containing Lipopeptides Derived from the Lead Peptide BP100 with Activity against Plant Pathogens” (International Journal of Molecular Sciences, 2021)
“And” between values parts separate entries of the source, which are not always exact repeats. Equal values may be shown once. Where a SMILES comes first, the peptide text is derived from it. [ ]: non-standard residue; d: D form. The star is where a group is joined. Lauroyl = CCCCCCCCCCCC(=O)*; Butyryl = CCCC(=O)*

Experiments:
[1] = test system: horse erythrocytes; test: Hemolytic activity (hemoglobin release from erythrocytes); type: cell-based; settings: D-amino acid lipopeptides, TRIS buffer pH 7.2, 1 h, 37 °C, ± confidence interval (α = 0.05); for Hemolysis (%) 250 µM / Hemolysis (%) 150 µM / Hemolysis (%) 375 µM: relative to melittin; for Hemolysis (%) 50 µM: absorbance 540 nm, relative to melittin 100 µM
Protocol: The hemolytic activity of the compounds was evaluated by determining hemoglobin release from erythrocyte suspensions of horse blood (5% vol/vol) (Oxoid) as previously described. Blood was centrifuged at 6000 g for 5 min, washed three times with tris(hydroxymethyl)aminomethane (TRIS) buffer (10 mM TRIS, 150 mM NaCl, pH 7.2) and diluted 10 times. Compounds were solubilized in TRIS buffer at 750, 500, 300 and 100 μM and mixed with horse erythrocytes (1:1 v/v). The mixture was incubated under continuous shaking for 1 h at 37 °C. Then, the tubes were centrifuged at 3500 g for 10 min, 80 μL aliquots of the supernatant transferred to 100-well microplates (Bioscreen), diluted with 80 μL water, and the absorbance measured at 540 nm (Bioscreen). Complete hemolysis was obtained by the addition of melittin at 100 μM (Sigma-Aldrich Corporation, Madrid, Spain). The percentage of hemolysis (H) was calculated using the equation: H = 100 × [(Op−Ob)/(Om−Ob)], where Op is the density for a given compound concentration, Ob for the buffer, and Om for the melittin-positive control.

[2] = test system: tobacco leaves; test: Effect of peptide infiltration on tobacco leaves (lesion size); type: in vivo; settings: for Size of the lesion (mm) 50 µM: 100 µL infiltrated into mesophyll of tobacco leaves; for Size of the lesion (mm) 50 µM / Size of the lesion (mm) 150 µM / Size of the lesion (mm) 250 µM: ± confidence interval
Protocol: The lipopeptides were evaluated for their effect upon infiltration on tobacco leaves as described previously. Peptide solutions of 50, 150 and 250 μM were infiltrated (100 μL) into the mesophylls of fully expanded tobacco leaves. Infiltrations were carried out in a single leaf, and for each peptide and dose, at least three leaves randomly distributed in different plants were infiltrated. Control infiltrations with water (negative control) or melittin (positive control) at the same molar concentration were performed. The appearance of symptoms on the leaves was followed for 48 h after infiltration and measured as a lesion diameter.

[3] = D-amino acid lipopeptides, lesion diameter, 48 h, at least three leaves
[4] = D-amino acid lipopeptides, 100 µL infiltrated into tobacco leaves, lesion diameter, 48 h, at least three leaves
[5] = D-amino acid lipopeptides, 250 µM, 100 µL infiltrated into tobacco leaves, lesion diameter, 48 h, at least three leaves
[6] = Table 2, 250 µM infiltrated into tobacco leaves

Row | Compound | Hemolysis (%) 250 µM [1] | Size of the lesion (mm) 50 µM [2, 3] | Size of the lesion (mm) 150 µM [2, 4] | Size of the lesion (mm) 250 µM [2, 5] | Size of the lesion (mm) 250 µM [2, 6] | Hemolysis (%) 50 µM [1] | Hemolysis (%) 150 µM [1] | Hemolysis (%) 375 µM [1] | necrosis in infiltrated tobacco leaves ([2]; positive control, 250 µM)
1 | CCCC(=O)NCCCC[C@H](NC(=O)[C@H](CC(C)C)NC(=O)[C@@H](NC(=O)[C@H](CCCCN)NC(=O)[C@H](CCCCN)NC(=O)[C@@H](Cc1ccccc1)NC(=O)[C@H](CC(C)C)NC(=O)[C@H](CCCCN)NC(=O)[C@H](CCCCN)NC(C)=O)[C@@H](C)CC)C(=O)N[C@@H](Cc1ccc(O)cc1)C(=O)N[C@@H](CC(C)C)C(N)=O [BP499, Ac-KKLfKKILK(COC3H7)YL-NH2] | 11 ± 1% | 6 ± 1 mm | 8 ± 2 mm | 8 ± 2 mm | 8 ± 2 mm | – | – | – | –
2 | CCCCCCCCCCCC(=O)NCCCC[C@H](NC(=O)[C@@H](NC(=O)[C@H](CCCCN)NC(=O)[C@H](CCCCN)NC(=O)[C@@H](Cc1ccccc1)NC(=O)[C@H](CC(C)C)NC(=O)[C@H](CCCCN)NC(=O)[C@H](CCCCN)NC(C)=O)[C@@H](C)CC)C(=O)N[C@@H](CCCCN)C(=O)N[C@@H](Cc1ccc(O)cc1)C(=O)N[C@@H](CC(C)C)C(N)=O [BP490, Ac-KKLfKKIK(COC11H23)KYL-NH2] (Ac-KKL[dF]KKIK(Lauroyl)KYL-NH2) | 100 ± 6% | 4 ± 0.7 mm | 6 ± 2 mm | 11 ± 3 mm | 11 ±3 mm | 100 ± 3% | – | – | –
3 | CCCC(=O)NCCCC[C@H](NC(=O)[C@@H](NC(=O)[C@H](CCCCN)NC(=O)[C@H](CCCCN)NC(=O)[C@@H](Cc1ccccc1)NC(=O)[C@H](CC(C)C)NC(=O)[C@H](CCCCN)NC(=O)[C@H](CCCCN)NC(C)=O)[C@@H](C)CC)C(=O)N[C@@H](CCCCN)C(=O)N[C@@H](Cc1ccc(O)cc1)C(=O)N[C@@H](CC(C)C)C(N)=O [BP474, Ac-KKLfKKIK(COC3H7)KYL-NH2] (Ac-KKL[dF]KKIK(Butyryl)KYL-NH2) | 0 ± 0% | 0 ± 0 mm | 2 ± 2 mm | 4 ± 2 mm | 4 ± 2 mm | 0 ± 0% | 0 ± 0% | 0 ± 0% | –
4 | CCCCCCCCCCCC(=O)NCCCC[C@H](NC(=O)[C@H](CCCCN)NC(=O)[C@H](CCCCN)NC(=O)[C@@H](Cc1ccccc1)NC(=O)[C@H](CC(C)C)NC(=O)[C@H](CCCCN)NC(=O)[C@H](CCCCN)NC(C)=O)C(=O)N[C@@H](CC(C)C)C(=O)N[C@@H](CCCCN)C(=O)N[C@@H](Cc1ccc(O)cc1)C(=O)N[C@@H](CC(C)C)C(N)=O [BP489, Ac-KKLfKKK(COC11H23)LKYL-NH2] (Ac-KKL[dF]KKK(Lauroyl)LKYL-NH2) | 100 ± 6% | 2 ± 0.5 mm | 6 ± 2 mm | 11 ± 1 mm | 11 ± 1 mm | – | – | 100 ± 1% | –
5 | CCCC(=O)N[C@@H](CCCCN)C(=O)N[C@@H](CCCCN)C(=O)N[C@@H](CC(C)C)C(=O)N[C@H](Cc1ccccc1)C(=O)N[C@@H](CCCCN)C(=O)N[C@@H](CCCCN)C(=O)N[C@H](C(=O)N[C@@H](CC(C)C)C(=O)N[C@@H](CCCCN)C(=O)N[C@@H](Cc1ccc(O)cc1)C(=O)N[C@@H](CC(C)C)C(N)=O)[C@@H](C)CC [BP485, C3H7CO-KKLfKKILKYL-NH2] | 24 ± 9% | 4 ± 0.7 mm | 7 ± 0.7 mm | 12 ± 1 mm | 12 ± 1 mm | – | – | – | –
6 | melittin [reference compound] | – | – | – | – | – | – | – | – | 18 mm
7 | CCCC(=O)NCCCC[C@H](NC(=O)[C@H](CCCCN)NC(=O)[C@H](CC(C)C)NC(=O)[C@@H](NC(=O)[C@H](CCCCN)NC(=O)[C@H](CCCCN)NC(=O)[C@@H](Cc1ccccc1)NC(=O)[C@H](CC(C)C)NC(=O)[C@H](CCCCN)NC(=O)[C@H](CCCCN)NC(C)=O)[C@@H](C)CC)C(=O)N[C@@H](CC(C)C)C(N)=O [BP475, Ac-KKLfKKILKK(COC3H7)L-NH2] (Ac-KKL[dF]KKILKK(Butyryl)L-NH2) | 0 ± 0% and 0% | 5 ± 1 mm | 7 ± 2 mm | 10 ± 1 mm | 10 ± 1 mm | 0 ± 0% | 0 ± 0% | 0 ± 0% | –
8 | CCCC(=O)NCCCC[C@H](NC(=O)[C@H](CCCCN)NC(=O)[C@@H](Cc1ccccc1)NC(=O)[C@H](CC(C)C)NC(=O)[C@H](CCCCN)NC(=O)[C@H](CCCCN)NC(C)=O)C(=O)N[C@H](C(=O)N[C@@H](CC(C)C)C(=O)N[C@@H](CCCCN)C(=O)N[C@@H](Cc1ccc(O)cc1)C(=O)N[C@@H](CC(C)C)C(N)=O)[C@@H](C)CC [BP473, Ac-KKLfKK(COC3H7)ILKYL-NH2] | 84 ± 11% | 2 ± 2 mm | 4 ± 0.9 mm | 5 ± 2 mm | 5 ± 2 mm | – | – | – | –
9 | CCCC(=O)NCCCC[C@H](NC(=O)[C@@H](Cc1ccccc1)NC(=O)[C@H](CC(C)C)NC(=O)[C@H](CCCCN)NC(=O)[C@H](CCCCN)NC(C)=O)C(=O)N[C@@H](CCCCN)C(=O)N[C@H](C(=O)N[C@@H](CC(C)C)C(=O)N[C@@H](CCCCN)C(=O)N[C@@H](Cc1ccc(O)cc1)C(=O)N[C@@H](CC(C)C)C(N)=O)[C@@H](C)CC [BP498, Ac-KKLfK(COC3H7)KILKYL-NH2] | 21 ± 3% | 4 ± 3 mm | 6 ± 2 mm | 6 ± 1 mm | 6 ± 1 mm | – | – | – | –
10 | CCCCCCCCCCCC(=O)NCCCC[C@H](NC(=O)[C@H](CCCCN)NC(=O)[C@H](CCCCN)NC(C)=O)C(=O)N[C@H](Cc1ccccc1)C(=O)N[C@@H](CCCCN)C(=O)N[C@@H](CCCCN)C(=O)N[C@H](C(=O)N[C@@H](CC(C)C)C(=O)N[C@@H](CCCCN)C(=O)N[C@@H](Cc1ccc(O)cc1)C(=O)N[C@@H](CC(C)C)C(N)=O)[C@@H](C)CC [BP500, Ac-KKK(COC11H23)fKKILKYL-NH2] (Ac-KKK(Lauroyl)[dF]KKILKYL-NH2) | 71 ± 8% | 3 ± 2 mm | 6 ± 2 mm | 9 ± 3 mm | 9 ± 3 mm | – | 71 ± 2% | – | –
